This passage reports GI50 and TGI results from PubChem BioAssay (NCI).

Some test systems named below: A549 NSCLC; HT29 colon; K-562 leukemia; RXF 393 renal; SK-MEL-5 melanoma; RPMI-8226 leukemia; SNB-19 CNS; SF-539 CNS; NCI-H460 lung; UACC-257 melanoma.
What all share (assay): NCI-60 cell line screen, 48 h

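Grown in 96-well plates, cells were treated for 48 hours with each compound at five concentrations. Insufficient inhibition: endpoint recorded as highest concentration tested. Abbreviation: GI50, concentration required for 50% inhibition of growth. TGI marks complete inhibition of growth.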

As for `COc1ccccc1Nc1nc(-c2cc3cccc(C(F)(F)F)c3oc2=O)cs1`, the GI50 is 0.261 µM in the test on A549 NSCLC; 0.126 µM in the test on HT29 colon; 0.0538 µM in the test on K-562 leukemia; 0.0657 µM in the test with RXF 393 renal; 0.169 µM with SK-MEL-5 melanoma; 0.24 µM in the test with RPMI-8226 leukemia. For the same compound, the GI50 with SNB-19 CNS was 1.15 µM; in the test on SF-539 CNS, 0.043 µM; in the test on NCI-H460 lung, 0.218 µM; in the test with UACC-257 melanoma it was 1.71 µM. Moreover, the TGI in the test on A549 NSCLC is more than 100 µM; with HT29 colon, 11.9 µM; in the test with K-562 leukemia, more than 100 µM; with RXF 393 renal, 30.7 µM; in the test with SK-MEL-5 melanoma, 0.627 µM; with RPMI-8226 leukemia, more than 71.4 µM. The TGI with SNB-19 CNS is more than 100 µM; in the test on SF-539 CNS it was 0.199 µM; in the test on NCI-H460 lung it was more than 39.5 µM; in the test with UACC-257 melanoma it was more than 100 µM.

As to `COc1ccc(C2CC(c3cc(OC)c(OC)c(OC)c3)=NN2)cc1` (stereo not given), the GI50 in the test with A549 NSCLC was 6.23 µM; in the test on HT29 colon it was 3.91 µM; in the test with K-562 leukemia it was 2.66 µM; in the test with RXF 393 renal, 9.71 µM; in the test on SK-MEL-5 melanoma it was 4.29 µM; in the test with RPMI-8226 leukemia it was 3.23 µM. Further, the GI50 in the test with SNB-19 CNS is 15.6 µM; with SF-539 CNS, 5.88 µM; in the test with NCI-H460 lung, 3.47 µM; in the test with UACC-257 melanoma, 43.4 µM. Further, the TGI in the test on A549 NSCLC is more than 100 µM; in the test with HT29 colon, more than 100 µM; in the test on K-562 leukemia, more than 100 µM; in the test with RXF 393 renal, 92 µM; in the test with SK-MEL-5 melanoma, 17.8 µM; in the test on RPMI-8226 leukemia, 18.6 µM. Moreover, the TGI in the test with SNB-19 CNS is more than 100 µM; with SF-539 CNS, 36.6 µM; in the test with NCI-H460 lung it was 30.1 µM; with UACC-257 melanoma, more than 100 µM.

For the compound `O=C1/C(=C/c2ccc(O)cc2)CCC1CNc1ccc(Cl)cc1` (stereo not given), the TGI in the test on A549 NSCLC turned out to be 21.6 µM; with HT29 colon it was 14.9 µM; with K-562 leukemia, 10.2 µM; with RXF 393 renal it was 15.6 µM; with SK-MEL-5 melanoma, 20.8 µM; in the test on RPMI-8226 leukemia it was 10.8 µM. Besides, the TGI with SNB-19 CNS amounted to 28.6 µM; in the test with SF-539 CNS, 15.5 µM; in the test on NCI-H460 lung it was 23 µM; in the test on UACC-257 melanoma it was 11.7 µM.

For the compound `Cn1c(=O)c(Cc2ccc(F)cc2F)cc2cnc(NC3CCOCC3)nc21`, the GI50 was more than 25 µM in the test with A549 NSCLC; more than 25 µM with HT29 colon; more than 20.1 µM with K-562 leukemia; 18.5 µM in the test on RXF 393 renal; 11.8 µM in the test with SK-MEL-5 melanoma; more than 23.6 µM with RPMI-8226 leukemia. Moreover, the GI50 in the test on SNB-19 CNS is 24.3 µM; in the test with SF-539 CNS, more than 25 µM; in the test on NCI-H460 lung it was more than 25 µM; in the test on UACC-257 melanoma, more than 25 µM. Further, the TGI in the test on A549 NSCLC, in the test with HT29 colon, in the test on K-562 leukemia, in the test on RXF 393 renal, in the test with SK-MEL-5 melanoma and in the test on RPMI-8226 leukemia was more than 25 µM each time. In addition, the TGI in the test on SNB-19 CNS, with SF-539 CNS, in the test on NCI-H460 lung and in the test with UACC-257 melanoma was more than 25 µM each time.

`COc1ccc(C(=O)Nc2cccc(C3CC(=O)c4c(cc(OC)c(OC)c4OC)O3)c2)cc1` (stereo not given): the GI50 in the test on A549 NSCLC was 3.31 µM; in the test with HT29 colon, 3.38 µM; in the test on K-562 leukemia it was 0.367 µM; with RXF 393 renal, 1.64 µM; in the test with SK-MEL-5 melanoma, 1.49 µM; with RPMI-8226 leukemia, 0.726 µM. The GI50 in the test on SNB-19 CNS was 1.01 µM; in the test with SF-539 CNS, 1.66 µM; in the test on NCI-H460 lung, 2.21 µM; in the test on UACC-257 melanoma, 11.6 µM. The TGI is more than 100 µM with A549 NSCLC; 12.2 µM in the test with HT29 colon; more than 100 µM in the test with K-562 leukemia; 5.48 µM in the test with RXF 393 renal; 4.04 µM in the test with SK-MEL-5 melanoma; 3.51 µM with RPMI-8226 leukemia. In addition, the TGI in the test with SNB-19 CNS was more than 100 µM; in the test with SF-539 CNS, 4.65 µM; with NCI-H460 lung, 11.7 µM; with UACC-257 melanoma, 56 µM.

In the case of `CSC(=S)N/N=C(\C)c1ccccn1`, the GI50 was 0.311 µM with A549 NSCLC; less than 0.0394 µM in the test on HT29 colon; less than 0.01 µM in the test on K-562 leukemia; 0.261 µM with RXF 393 renal; 0.28 µM in the test on SK-MEL-5 melanoma; 0.0232 µM in the test with RPMI-8226 leukemia. In addition, the GI50 with SNB-19 CNS was 0.77 µM; in the test with SF-539 CNS it was 0.366 µM; with NCI-H460 lung, 0.289 µM; in the test with UACC-257 melanoma, 0.159 µM. Moreover, the TGI in the test on A549 NSCLC stood at 18 µM; in the test with HT29 colon, 18.1 µM; with K-562 leukemia it was 23.3 µM; in the test with RXF 393 renal, 3.1 µM; in the test on SK-MEL-5 melanoma, 1.04 µM; with RPMI-8226 leukemia it was 16.1 µM. For the same compound, the TGI in the test on SNB-19 CNS was more than 72.3 µM; in the test with SF-539 CNS, 3.54 µM; in the test with NCI-H460 lung, 1.23 µM; with UACC-257 melanoma it was 1.55 µM.

Turning to `O=[N+]([O-])c1ccc2[nH]cc(-c3c4ccccc4cc4[nH]c5ccc([N+](=O)[O-])cc5c34)c2c1`, the GI50 in the test with A549 NSCLC is 2.07 µM; with HT29 colon, 3.62 µM; in the test with K-562 leukemia it was 3.5 µM; in the test on RXF 393 renal, 2.03 µM; in the test on SK-MEL-5 melanoma, 1.62 µM; with RPMI-8226 leukemia, 2.27 µM. Further, the GI50 is 2.88 µM in the test with SNB-19 CNS, 2 µM with SF-539 CNS, 2.72 µM with NCI-H460 lung and 2.45 µM in the test with UACC-257 melanoma. For the same compound, the TGI is 4.8 µM with A549 NSCLC; 11.3 µM in the test with HT29 colon; more than 100 µM in the test on K-562 leukemia; 4.73 µM in the test with RXF 393 renal; 2.98 µM with SK-MEL-5 melanoma; 6.32 µM with RPMI-8226 leukemia. Besides, the TGI in the test with SNB-19 CNS amounted to 9.13 µM; in the test on SF-539 CNS, 4.98 µM; with NCI-H460 lung it was 7.7 µM; in the test on UACC-257 melanoma, 7.13 µM.

In the case of `Cc1cccc(C)c1NC(=O)C(=O)C1C(=O)N(c2ccccc2)N=C1N` (stereo not given), the TGI with A549 NSCLC, in the test with HT29 colon, in the test on K-562 leukemia, in the test with RXF 393 renal, with SK-MEL-5 melanoma and in the test on RPMI-8226 leukemia was more than 100 µM in each case. Moreover, the TGI with SNB-19 CNS, in the test with SF-539 CNS, in the test with NCI-H460 lung and in the test on UACC-257 melanoma was more than 100 µM in each case.
